3 molecules from ChEMBL document CHEMBL3739404, “Arylsulfonamide derivatives of (aryloxy)ethylpiperidines as selective 5-HT7receptor antagonists and their psychotropic properties” (Medchemcomm, 2015) can be followed below.

Molecules are shown by their SMILES. pKi: −log10 of the molar value. Calls of active or inactive are those of the source. The calls are words filed in the database; no cut-off is given here. A value given as a limit tells only on which side of the number the result lay.

Data set [1] has as its target Beta-1 adrenergic receptor (Homo sapiens) (UniProt P08588). As to the kind of experiment: Binding affinity to beta-1 adrenergic receptor (unknown origin) at 1 uM.
Data set [2] addresses T1, 5-hydroxytryptamine receptor 7 (Homo sapiens, UniProt P34969). The experiment in a line: Antagonist activity at human 5-HT7B receptor expressed in HEK293 cells assessed as inhibition of 5-carboxyamidotryptamine-induced cAMP production after 30 mins by TR-FRET assay. Format: functional, cell-based. (Changes in cAMP serve as a functional read-out for many G protein-coupled receptors.)

The target of data set [3] is Histamine H1 receptor (Homo sapiens) (UniProt P35367). The experiment in a line: Binding affinity to histamine H1 receptor (unknown origin) at 1 uM.
Histamine H1 receptor (Homo sapiens), sequence (P35367 whole entry): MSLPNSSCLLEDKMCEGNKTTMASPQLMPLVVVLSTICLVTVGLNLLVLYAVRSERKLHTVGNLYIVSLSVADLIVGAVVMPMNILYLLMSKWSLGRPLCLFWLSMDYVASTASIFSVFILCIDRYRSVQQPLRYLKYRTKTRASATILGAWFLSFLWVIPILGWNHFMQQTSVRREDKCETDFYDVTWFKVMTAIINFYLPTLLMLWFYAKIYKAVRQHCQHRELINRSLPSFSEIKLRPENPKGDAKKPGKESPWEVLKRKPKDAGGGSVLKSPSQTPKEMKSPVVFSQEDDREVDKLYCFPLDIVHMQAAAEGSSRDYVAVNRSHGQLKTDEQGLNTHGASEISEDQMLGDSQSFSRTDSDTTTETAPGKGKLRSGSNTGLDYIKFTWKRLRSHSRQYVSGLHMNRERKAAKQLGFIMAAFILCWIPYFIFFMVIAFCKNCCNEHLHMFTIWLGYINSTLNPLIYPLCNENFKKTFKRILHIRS
Data set [4] has as its system Rattus norvegicus. As to the kind of experiment: Pro-cognitive effect in Sprague-Dawley rat assessed as reduction in PCP-induced memory deficits administered ip 1 hr 15 mins before familiarization phase by novel object recognition test. Format: functional, organism-based.
The test system of data set [5] is Mus musculus. As to the kind of experiment: Toxicity in albino Swiss mouse assessed as effect on spontaneous locomotor activity at 1.25 mg/kg, ip dosed 60 mins before test measured for 1 min 15 secs by M3 multichannel activity test. Format: organism-based. The settings on record: in vivo.
For data set [6], the target named is 5-hydroxytryptamine receptor 6 (Homo sapiens, UniProt P50406). The experiment in a line: Displacement of [3H]-LSD from human serotonin 5-HT6 receptor expressed in HEK293 cells after 1 hr by microplate reader based assay. Format: cell-based. In general terms: Loss of bound radioactivity is the signal in a displacement assay; it reports binding, not function.
5-hydroxytryptamine receptor 6, sequence (P50406 whole entry): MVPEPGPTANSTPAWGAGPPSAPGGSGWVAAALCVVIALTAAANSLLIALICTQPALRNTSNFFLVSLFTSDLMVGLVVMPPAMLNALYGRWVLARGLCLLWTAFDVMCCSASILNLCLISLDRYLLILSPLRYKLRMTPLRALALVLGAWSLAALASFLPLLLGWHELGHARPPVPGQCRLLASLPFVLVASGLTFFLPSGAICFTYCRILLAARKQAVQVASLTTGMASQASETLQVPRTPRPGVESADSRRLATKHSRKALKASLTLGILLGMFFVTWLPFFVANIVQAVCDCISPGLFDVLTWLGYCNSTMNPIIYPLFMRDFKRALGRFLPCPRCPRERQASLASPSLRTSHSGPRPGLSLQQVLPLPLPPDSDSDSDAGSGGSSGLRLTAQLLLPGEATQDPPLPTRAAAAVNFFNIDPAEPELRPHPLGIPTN
Data set [7] deals with Mus musculus. As to the kind of experiment: Anxiolytic-like activity in albino Swiss mouse assessed as increase in number of punished crossings at 1.25 mg/kg, ip dosed 60 mins before test by four plate test. Format: functional.
Data set [8] addresses D(2) dopamine receptor (Homo sapiens, UniProt P14416). As to the kind of experiment: Displacement of [3H]-Raclopride from human dopamine D2L receptor expressed in HEK293 cells after 1 hr by microplate reader based assay. Format: cell-based.
In data set [9] the test system is Mus musculus. As to the kind of experiment: Toxicity in albino Swiss mouse assessed as effect on spontaneous locomotor activity at 2.5 mg/kg, ip dosed 60 mins before test measured for 2 to 6 mins by M3 multichannel activity test. Format: organism-based. As to conditions: in vivo.
The target of data set [10] is T1, 5-hydroxytryptamine receptor 7. As to the kind of experiment: Displacement of [3H]-5-carboxyamidotryptamine from human serotonin 5-HT7B receptor expressed in HEK293 cells after 1 hr by microplate reader based assay. Format: cell-based.
The target of data set [11] is T2, 5-hydroxytryptamine receptor 1A (Homo sapiens, UniProt P08908).
T2 sequence (P08908 whole entry): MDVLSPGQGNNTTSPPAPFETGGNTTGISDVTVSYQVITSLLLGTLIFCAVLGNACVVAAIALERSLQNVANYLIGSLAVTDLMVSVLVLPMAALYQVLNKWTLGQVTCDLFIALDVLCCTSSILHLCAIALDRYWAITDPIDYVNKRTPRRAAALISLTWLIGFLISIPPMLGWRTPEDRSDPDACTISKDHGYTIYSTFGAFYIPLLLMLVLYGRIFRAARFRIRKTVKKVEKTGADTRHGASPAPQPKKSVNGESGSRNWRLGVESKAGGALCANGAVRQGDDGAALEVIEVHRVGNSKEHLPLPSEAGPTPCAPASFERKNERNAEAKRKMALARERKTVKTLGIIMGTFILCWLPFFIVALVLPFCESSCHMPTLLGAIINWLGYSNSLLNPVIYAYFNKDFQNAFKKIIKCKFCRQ
As to the kind of experiment: Displacement of [3H]-8-OH-DPAT from human serotonin 5-HT1A receptor expressed in HEK293 cells after 1 hr by microplate reader based assay. Format: cell-based.

Data set [12] has as its target T3, Muscarinic acetylcholine receptor M1 (Homo sapiens) (UniProt P11229).
T3 sequence (whole entry): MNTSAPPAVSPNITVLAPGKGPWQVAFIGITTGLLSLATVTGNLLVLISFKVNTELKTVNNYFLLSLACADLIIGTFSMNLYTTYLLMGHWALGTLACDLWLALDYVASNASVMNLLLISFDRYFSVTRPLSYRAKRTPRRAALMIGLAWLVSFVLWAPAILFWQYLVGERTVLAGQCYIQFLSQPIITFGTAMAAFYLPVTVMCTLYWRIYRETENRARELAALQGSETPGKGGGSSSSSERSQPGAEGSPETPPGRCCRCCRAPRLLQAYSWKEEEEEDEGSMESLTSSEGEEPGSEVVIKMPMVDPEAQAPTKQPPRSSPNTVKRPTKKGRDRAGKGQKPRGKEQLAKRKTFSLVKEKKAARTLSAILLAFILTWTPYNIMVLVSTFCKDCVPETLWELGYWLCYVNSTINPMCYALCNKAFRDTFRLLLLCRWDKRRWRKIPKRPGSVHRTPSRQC
As to the kind of experiment: Binding affinity to muscarinic acetylcholine receptor M1 (unknown origin) at 1 uM.

Data set [13] concerns the target T4, Adrenergic receptor alpha-1 (Rattus norvegicus, UniProt P15823+P23944+P43140).
T4 sequence (P15823 whole entry): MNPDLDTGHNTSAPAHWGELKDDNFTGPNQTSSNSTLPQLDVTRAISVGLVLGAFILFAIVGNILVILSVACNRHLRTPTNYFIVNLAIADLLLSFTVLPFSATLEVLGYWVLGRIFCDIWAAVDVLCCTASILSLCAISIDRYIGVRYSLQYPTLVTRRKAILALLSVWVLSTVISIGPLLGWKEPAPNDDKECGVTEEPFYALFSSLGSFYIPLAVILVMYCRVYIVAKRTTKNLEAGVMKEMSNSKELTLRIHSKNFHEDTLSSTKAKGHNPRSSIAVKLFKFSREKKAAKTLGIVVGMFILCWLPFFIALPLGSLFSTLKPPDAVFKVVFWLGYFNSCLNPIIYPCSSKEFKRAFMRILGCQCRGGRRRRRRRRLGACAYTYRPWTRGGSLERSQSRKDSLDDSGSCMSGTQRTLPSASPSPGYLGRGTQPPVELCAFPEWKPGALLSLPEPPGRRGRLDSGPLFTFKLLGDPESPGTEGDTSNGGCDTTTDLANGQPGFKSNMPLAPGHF
T4 sequence (P23944 whole entry): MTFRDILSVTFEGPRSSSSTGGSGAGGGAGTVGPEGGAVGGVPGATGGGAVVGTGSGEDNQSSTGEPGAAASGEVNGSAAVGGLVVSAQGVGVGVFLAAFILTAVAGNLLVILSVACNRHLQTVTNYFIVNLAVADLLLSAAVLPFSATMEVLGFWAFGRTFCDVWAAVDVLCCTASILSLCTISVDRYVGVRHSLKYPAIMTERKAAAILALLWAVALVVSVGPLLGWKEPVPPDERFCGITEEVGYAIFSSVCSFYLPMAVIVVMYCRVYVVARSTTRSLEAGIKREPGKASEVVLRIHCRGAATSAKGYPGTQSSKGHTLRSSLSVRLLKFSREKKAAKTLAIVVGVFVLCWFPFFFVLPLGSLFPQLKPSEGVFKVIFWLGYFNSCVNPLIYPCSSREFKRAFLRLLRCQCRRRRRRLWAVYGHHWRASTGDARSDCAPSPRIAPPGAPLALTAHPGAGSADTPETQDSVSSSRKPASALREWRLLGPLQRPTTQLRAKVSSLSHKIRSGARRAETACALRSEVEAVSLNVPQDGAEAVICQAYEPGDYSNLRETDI
T4 sequence (P43140 whole entry): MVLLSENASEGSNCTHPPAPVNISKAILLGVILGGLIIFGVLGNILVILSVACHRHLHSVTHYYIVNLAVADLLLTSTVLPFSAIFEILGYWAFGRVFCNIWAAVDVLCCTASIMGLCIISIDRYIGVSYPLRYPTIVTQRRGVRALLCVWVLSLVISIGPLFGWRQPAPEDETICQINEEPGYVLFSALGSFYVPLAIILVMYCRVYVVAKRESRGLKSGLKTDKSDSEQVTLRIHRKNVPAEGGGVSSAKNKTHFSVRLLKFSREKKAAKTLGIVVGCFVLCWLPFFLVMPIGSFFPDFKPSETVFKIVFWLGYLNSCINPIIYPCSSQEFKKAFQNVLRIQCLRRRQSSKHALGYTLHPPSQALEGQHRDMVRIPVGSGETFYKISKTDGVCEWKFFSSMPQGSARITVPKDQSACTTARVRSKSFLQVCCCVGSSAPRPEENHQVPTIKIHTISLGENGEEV
As to the kind of experiment: Displacement of [3H]-Prazosin from alpha-1 adrenergic receptor in rat cerebral cortex after 1 hr by microplate reader based assay. Format: tissue-based.

In data set [14] the test system is Mus musculus. The experiment in a line: Toxicity in ip dosed albino Swiss mouse assessed as effect on spontaneous locomotor activity dosed 60 mins before test measured for 1 min 15 secs by M3 multichannel activity test. Format: organism-based. The settings on record: in vivo.
In data set [15] the test system is Mus musculus. The experiment in a line: Toxicity in albino Swiss mouse assessed as effect on spontaneous locomotor activity at 5 mg/kg, ip dosed 60 mins before test measured for 2 to 6 mins by M3 multichannel activity test. Format: organism-based. The settings on record: in vivo.
Data set [16] addresses T1, 5-hydroxytryptamine receptor 7. The experiment in a line: Antagonist activity at human serotonin 5-HT7B receptor expressed in CHO cells assessed as inhibition of serotonin-induced cAMP production after 30 mins by HTRF assay. Format: functional, cell-based.
Data set [17] concerns Mus musculus. The experiment in a line: Anxiolytic-like activity in albino Swiss mouse assessed as increase in number of punished crossings at 1 mg/kg, ip dosed 30 mins before test by four plate test. Format: functional, organism-based.
Data set [18] relates to Mus musculus. As to the kind of experiment: Toxicity in albino Swiss mouse assessed as effect on spontaneous locomotor activity at 1 mg/kg, ip dosed 30 mins before test measured for 1 min 15 secs by M3 multichannel activity test. As to conditions: in vivo. Format: organism-based.
For data set [19], the system named is Mus musculus. The experiment in a line: Toxicity in albino Swiss mouse assessed as effect on spontaneous locomotor activity at 10 mg/kg, ip dosed 30 mins before test measured for 2 to 6 mins by M3 multichannel activity test. Format: organism-based. As to conditions: in vivo.
The test system of data set [20] is Mus musculus. The experiment in a line: Antidepressant-like activity in albino Swiss mouse assessed as reduction in immobility time at 10 mg/kg, ip dosed 30 mins before test by forced swim test. Format: functional. More on the design: scale not given: the % may be the effect or the level left.

T1 sequence (P34969 whole entry): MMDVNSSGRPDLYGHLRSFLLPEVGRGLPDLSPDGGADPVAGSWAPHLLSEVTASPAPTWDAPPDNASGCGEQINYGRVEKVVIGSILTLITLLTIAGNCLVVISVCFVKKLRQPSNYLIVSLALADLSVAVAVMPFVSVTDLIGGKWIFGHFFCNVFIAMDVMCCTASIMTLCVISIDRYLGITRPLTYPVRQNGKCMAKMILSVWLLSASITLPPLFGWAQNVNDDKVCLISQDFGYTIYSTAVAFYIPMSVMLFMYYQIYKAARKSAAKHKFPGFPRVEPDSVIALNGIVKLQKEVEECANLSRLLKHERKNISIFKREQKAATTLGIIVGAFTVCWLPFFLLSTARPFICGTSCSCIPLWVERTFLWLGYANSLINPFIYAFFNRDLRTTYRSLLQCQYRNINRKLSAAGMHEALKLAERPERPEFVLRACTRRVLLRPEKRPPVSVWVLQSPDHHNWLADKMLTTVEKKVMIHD
D(2) dopamine receptor, sequence (P14416 whole entry): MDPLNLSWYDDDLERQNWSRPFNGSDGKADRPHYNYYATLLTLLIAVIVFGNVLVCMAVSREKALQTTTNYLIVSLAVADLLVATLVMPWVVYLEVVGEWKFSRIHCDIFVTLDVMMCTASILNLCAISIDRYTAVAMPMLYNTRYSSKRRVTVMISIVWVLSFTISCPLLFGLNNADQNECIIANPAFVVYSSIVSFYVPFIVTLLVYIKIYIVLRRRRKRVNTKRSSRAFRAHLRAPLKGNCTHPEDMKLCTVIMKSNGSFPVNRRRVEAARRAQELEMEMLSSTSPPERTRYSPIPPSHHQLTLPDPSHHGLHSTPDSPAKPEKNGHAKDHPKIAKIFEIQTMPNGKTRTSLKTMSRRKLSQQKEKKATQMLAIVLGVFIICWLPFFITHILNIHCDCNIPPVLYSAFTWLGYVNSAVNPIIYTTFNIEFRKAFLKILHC
Beta-1 adrenergic receptor (Homo sapiens), sequence (P08588 whole entry, looked up): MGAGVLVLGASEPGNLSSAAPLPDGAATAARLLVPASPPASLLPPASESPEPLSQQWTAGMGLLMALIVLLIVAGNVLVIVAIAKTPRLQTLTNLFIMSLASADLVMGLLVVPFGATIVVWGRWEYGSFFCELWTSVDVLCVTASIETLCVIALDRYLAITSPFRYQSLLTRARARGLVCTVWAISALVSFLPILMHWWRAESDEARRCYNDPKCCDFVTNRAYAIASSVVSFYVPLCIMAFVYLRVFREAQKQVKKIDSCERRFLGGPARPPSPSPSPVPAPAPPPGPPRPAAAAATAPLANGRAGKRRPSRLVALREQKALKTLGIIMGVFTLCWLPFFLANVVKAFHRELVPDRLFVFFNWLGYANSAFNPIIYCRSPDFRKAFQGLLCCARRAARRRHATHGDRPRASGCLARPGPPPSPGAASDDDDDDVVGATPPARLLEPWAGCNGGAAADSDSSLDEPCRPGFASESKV

As to `CC(C)c1ccccc1OCCN1CCC(NS(=O)(=O)c2cccc(F)c2)CC1`, the Activity in [1] was less than 10%; in data set [3], less than 74%; in data set [4], “Dose-dependent effect”; in data set [5] it was “Non-toxic”; in [7], 75%; in data set [9], “Non-toxic”. The Activity in data set [12] is less than 10%. Also, in [2], the Kb (in general, the equilibrium dissociation constant of an antagonist, usually derived from a functional assay) came out at 26 nM. Further, the pKi (in general, −log10 of the Ki, conventionally taken in molar units) in data set [6] was 6.33; in [8] it was 6.99; in [10], 8.05; in [11], 6.45.
As for `CC(C)c1ccccc1OCCN1CCC(NS(=O)(=O)c2ccccc2F)CC1`, the Activity in data set [1] was less than 10%; in data set [3], less than 74%; in data set [4], “Dose-dependent effect”; in data set [14], “Non-toxic”; in [15], “Non-toxic”; in data set [12], less than 10%. The antagonist equilibrium constant (Kb) in data set [2] came out at 12 nM; in data set [16], 1 nM. In addition, the pKi in data set [6] was 6.62; in [8] it was 7.29. For the same molecule, in data set [13], the Ki – broadly, a measure of affinity in units of concentration, obtained from inhibition or displacement – amounted to 629 nM.
Take `CC1CCN(CC[C@H]2CCCN2S(=O)(=O)c2cccc(O)c2)CC1`: in data set [17], the outcome was Active. The results for the Activity result in data set [18], in data set [19] and in data set [20] were “Non-toxic”, “Non-toxic” and 33%, respectively.
